# Measurements from paper PMC4646072 (Chemistry (Weinheim an der Bergstrasse, Germany), 2015).
# Target: AgtA (His6AgtA) (Dictyostelium discoideum, UniProt Q54RP0)
# Assay: radiometric galactosyl transfer from UDP-[3H]Gal
# Format: biochemical
# Conditions: 10 µM UDP-[3H]Gal, 60 min; acceptor substrate
# Sequence of AgtA (His6AgtA) (Q54RP0 whole entry): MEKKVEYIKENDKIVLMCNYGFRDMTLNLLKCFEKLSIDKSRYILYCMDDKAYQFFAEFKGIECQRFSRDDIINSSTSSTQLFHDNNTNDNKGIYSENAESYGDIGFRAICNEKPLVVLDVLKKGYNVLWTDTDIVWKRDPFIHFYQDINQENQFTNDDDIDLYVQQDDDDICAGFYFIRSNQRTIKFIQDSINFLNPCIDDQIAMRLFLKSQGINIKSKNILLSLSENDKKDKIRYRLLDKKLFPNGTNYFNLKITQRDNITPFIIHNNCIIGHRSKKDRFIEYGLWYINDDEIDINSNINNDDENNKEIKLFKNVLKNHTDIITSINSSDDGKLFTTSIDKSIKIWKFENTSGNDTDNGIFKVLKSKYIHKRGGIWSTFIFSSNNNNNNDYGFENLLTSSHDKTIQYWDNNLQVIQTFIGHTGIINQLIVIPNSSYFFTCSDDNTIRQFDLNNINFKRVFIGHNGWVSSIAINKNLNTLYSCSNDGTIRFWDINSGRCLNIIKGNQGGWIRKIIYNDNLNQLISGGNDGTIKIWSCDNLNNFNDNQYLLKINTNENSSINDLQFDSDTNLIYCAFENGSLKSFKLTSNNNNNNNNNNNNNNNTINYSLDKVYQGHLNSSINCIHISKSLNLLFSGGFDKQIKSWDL
smiles,measurement,value
C[C@@H]1O[C@@H](Oc2ccc([N+](=O)[O-])cc2)[C@@H](O)[C@H](O)[C@@H]1O [F-pNP],radiometric galactosyl transfer from UDP-[3H]Gal,Comparison of AgtA activity towards F-pNP and FGGn-pNP
